Measurements reported in article PMC4138103 (PLoS ONE, 2014).
Several values for one entry are separate records, joined by “and”; a condition that tells them apart may be missing. Equal entries are not always repeated.

Tested on: Sprague-Dawley rats
Experiment: Retinoid analyses in liver, serum and kidney
Type: in vivo, Rattus norvegicus
Set-up: key to Dose response, Liver Retinol: D: significant dose response (for results see Table 2 in the text); T: significant trend; key to Kidney Retinyl esters, Dose response / Liver All-trans RA, Dose response / Kidney All-trans RA, Dose response / Serum Retinol, Dose response: D: significant dose response (for results, see Table 2); T: significant trend
Procedure: Retinoids in liver, serum, and kidney were analyzed according to Schmidt et al.. The polar retinoids 9-cis-retinoic acid (9-cis-RA), 13-cis-retinoic acid (13-cis-RA), 13-cis-4-oxo-retinoic acid (13-cis-4-o-RA), 9-cis-4-oxo-13,14-dihydro-retinoic acid (9-cis-4-o-13,14-dh-RA), all-trans retinoic acid (all-trans RA) and the apolar retinoids retinol and retinyl palmitate were extracted by a single liquid-extraction, separated from each other via solid-phase extraction using an aminopropyl phase, and then injected onto two different HPLC systems that were coupled with UV detection. […] The limits of detection (LOD) for all-trans RA and 9c-4o-13,14-dh-RA were 0.7 and 1.0 pmol/g tissue, and 0.3 and 0.6 pmol/ml serum, respectively. Retinol and retinyl palmitate were separated on a J'sphere ODS-H80 (4.6×150 mm, 4 µm particle size) obtained from YMC (Schermbeck, Germany), and were detected at 325 nm. The LOD for retinol and retinyl palmitate were 5.6 and 5.5 pmol/g tissue, and 4.2 and 4.2 pmol/ml serum, respectively.
Data were also analyzed using the BMD method, which is based on dose-response modeling of the full data set using a nested family of exponential and Hill models. The analyses were done on data of males and females combined, using sex as a covariate. […] In that case, different Critical Effect Doses (CEDs) and CEDs at the lowest bound of the confidence interval (CED-L) were generated for each sex. If no difference between sexes is detected, a CED and CED-Ls for the combined data is generated. However, this was also done if the curve fits are close, and separate analyses for males and females were then performed manually. CEDs and CED-Ls were calculated at the predefined Critical Effect Size (CES) of 5% (EFSA standard) or 10%.

[1] = females, CES 5%, total dose based
[2] = females, CES 10%, total dose based
[3] = females, adipose tissue concentration based
[4] = males, total dose 0-1700 mg/kg bw
[5] = males, total dose 3 mg/kg bw, group mean, N=5
[6] = males, total dose 10 mg/kg bw, group mean, N=5
[7] = males, total dose 30 mg/kg bw, group mean, N=5

Clc1cc(Cl)c(-c2cc(Cl)c(Cl)c(Cl)c2Cl)cc1Cl [PCB 180, 2,2′,3′,4,4′,5,5′-heptachlorobiphenyl]
Kidney all-trans RA amount, CED-L [1]: 319 mg/kg bw
Kidney all-trans RA concentration, CED [1]: 457 mg/kg bw
Kidney all-trans RA concentration, CED-L [1]: 321 mg/kg bw
Kidney retinol amount, CED [1]: 355 mg/kg bw
Kidney retinol amount, CED-L [1]: 221 mg/kg bw
Kidney retinol concentration, CED [1]: 335 mg/kg bw
Kidney retinol concentration, CED-L [1]: 216 mg/kg bw
Liver 9c-4o-13,14-dh-RA amount, CED [1]: 13.1 mg/kg bw
Liver 9c-4o-13,14-dh-RA amount, CED-L [1]: 8.29 mg/kg bw
Liver 9c-4o-13,14-dh-RA conc., CED [1]: 12 mg/kg bw and 12.2 mg/kg bw
Liver 9c-4o-13,14-dh-RA conc., CED-L [1]: 8.77 mg/kg bw
Liver retinol concentration, CED [1]: 156 mg/kg bw
Liver retinol concentration, CED-L [1]: 119 mg/kg bw
Liver retinyl esters amount, CED [1]: 254 mg/kg bw
Liver retinyl esters amount, CED-L [1]: 189 mg/kg bw
Liver retinyl esters concentration, CED [1]: 122 mg/kg bw
Liver retinyl esters concentration, CED-L [1]: 104 mg/kg bw
Serum retinol concentration, CED [1]: 400 mg/kg bw
Serum retinol concentration, CED-L [1]: 242 mg/kg bw
Kidney all-trans RA amount, CED [2]: 965 mg/kg bw
Kidney all-trans RA amount, CED-L [2]: 625 mg/kg bw
Kidney all-trans RA concentration, CED [2]: 892 mg/kg bw
Kidney all-trans RA concentration, CED-L [2]: 626 mg/kg bw
Kidney retinol amount, CED [2]: 694 mg/kg bw
Kidney retinol amount, CED-L [2]: 431 mg/kg bw
Kidney retinol concentration, CED [2]: 655 mg/kg bw
Kidney retinol concentration, CED-L [2]: 421 mg/kg bw
Liver 9c-4o-13,14-dh-RA amount, CED [2]: 27.2 mg/kg bw
Liver 9c-4o-13,14-dh-RA amount, CED-L [2]: 17.2 mg/kg bw
Liver 9c-4o-13,14-dh-RA conc., CED [2]: 25.3 mg/kg bw
Liver 9c-4o-13,14-dh-RA conc., CED-L [2]: 18.2 mg/kg bw
Liver retinol concentration, CED [2]: 374 mg/kg bw
Liver retinol concentration, CED-L [2]: 263 mg/kg bw
Liver retinyl esters amount, CED [2]: 522 mg/kg bw
Liver retinyl esters amount, CED-L [2]: 388 mg/kg bw
Liver retinyl esters concentration, CED [2]: 252 mg/kg bw
Liver retinyl esters concentration, CED-L [2]: 214 mg/kg bw
Serum retinol concentration, CED [2]: 781 mg/kg bw
Serum retinol concentration, CED-L [2]: 474 mg/kg bw
Kidney all-trans RA concentration, CED [3]: 2930 µg/g lipid
Kidney retinol concentration, CED [3]: 2060 µg/g lipid
Liver 9c-4o-13,14-dh-RA concentration, CED [3]: 55.5 µg/g lipid and 56 µg/g lipid
Liver retinol concentration, CED [3]: 1000 µg/g lipid
Liver retinyl ester concentration, CED [3]: 793 µg/g lipid
Serum retinol concentration, CED [3]: 2470 µg/g lipid
Serum retinol concentration, Maximum response (females, controls vs high dose, fitted model): 23.1%
Liver retinol concentration, max. decrease (males): 47%
Liver retinyl ester concentration, max. decrease (males): 63%
Dose response, Kidney Retinol [4]: D, T
Dose response, Kidney Retinyl esters [4]: D, T
Dose response, Liver All-trans RA [4]: D, T
Dose response, Liver Retinol [4]: D
Dose response, Liver Retinyl esters [4]: D, T
Kidney Retinol, Dose response [4]: D, T
Kidney Retinyl esters, Dose response [4]: D
Liver All-trans RA, Dose response [4]: D
Liver Retinol, Dose response [4]: D, T
Liver Retinyl esters, Dose response [4]: D, T
Kidney All-trans RA [5]: 35.9 pmol
Kidney Retinol [5]: 14.2 nmol
Kidney Retinyl esters [5]: 4.99 nmol
Liver 9-cis-4o-13,14-dh RA [5]: 218 pmol
Liver All-trans RA [5]: 544 pmol
Liver Retinol [5]: 0.28 µmol
Liver Retinyl esters [5]: 11.5 µmol
Kidney All-trans RA [6]: 36.9 pmol
Kidney Retinol [6]: 17.6 nmol
Kidney Retinyl esters [6]: 8.73 nmol
Liver All-trans RA [6]: 632 pmol
Liver Retinol [6]: 0.32 µmol
Liver Retinyl esters [6]: 12.5 µmol
Kidney All-trans RA (males, total dose 30 mg/kg bw): 31.8 pmol/g
Kidney Retinol (males, total dose 30 mg/kg bw): 16.9 nmol/g
Kidney Retinyl esters (males, total dose 30 mg/kg bw): 7.83 nmol/g
Liver All-trans RA (males, total dose 30 mg/kg bw): 44.5 pmol/g
Liver Retinol (males, total dose 30 mg/kg bw): 20.5 nmol/g
Liver Retinyl esters (males, total dose 30 mg/kg bw): 0.77 µmol/g
Serum Retinyl esters (males, total dose 30 mg/kg bw): 46.5 pmol/mL
Liver Retinyl esters (males, total dose 30 mg/kg bw, Liver): 46.5 pmol/mL
Liver Retinol (males, total dose 30 mg/kg bw, Liver, n=4): 1.65 pmol/mL
Kidney All-trans RA [7]: 33.3 pmol
Kidney Retinol [7]: 17.5 nmol
Kidney Retinyl esters [7]: 8.12 nmol
Liver All-trans RA [7]: 623 pmol
Liver Retinol [7]: 0.29 µmol
Liver Retinyl esters [7]: 10.7 µmol
Serum Retinol (males, total dose 30 mg/kg bw, n=4): 1.65 pmol/mL
Kidney All-trans RA (males, total dose 100 mg/kg bw): 34.8 pmol/g
Kidney Retinol (males, total dose 100 mg/kg bw): 16.3 nmol/g
Kidney Retinyl esters (males, total dose 100 mg/kg bw): 8.27 nmol/g
Liver All-trans RA (males, total dose 100 mg/kg bw): 44.4 pmol/g
Liver Retinol (males, total dose 100 mg/kg bw): 15.7 nmol/g
Liver Retinyl esters (males, total dose 100 mg/kg bw): 0.62 µmol/g
Serum Retinyl esters (males, total dose 100 mg/kg bw): 84.5 pmol/mL
